In patent publication US20140296354A1, “SYNTHESIS OF PEPTOID-BASED SMALL MOLECULAR GELATORS FROM MULTIPLE COMPONENT REACTIONS” (OLD DOMINION UNIVERSITY RESEARCH FOUNDATION, priority 2013, published 2014):

How the values were obtained:
[1] = Gelation test in solvents at room temperature; type: physicochemical; parameters: key to Gelation test result: I, insoluble; P, precipitating; S, soluble at ~20 mg/mL; G, gel at room temperature; number is minimum gelation concentration; conditions: for Gelation test result / minimum gelation concentration: room temperature; for MGC in DMSO:H2O (1:2): Table 2
Experimental: Gelation tests were performed by adding incremental amounts of compounds to a solvent or solvent system at room temperature and observing the results (i.e., gel formation, solubility of compounds, insolubility of compounds, or formation of a precipitate). […] The term “precipation” means that the compound dissolves upon heating and sonicating, however, it crashes out of solution when the heat is removed.
After the compounds were synthesized, they were screened for gelation properties. […] For the compounds with new chiral centers, they formed gels in aqueous environment preferentially.

Gel melting temperatures = type: physicochemical; conditions: gel in DMSO:H2O (1:2) at its minimum gelation concentration
Experimental: Melting points were measured for compounds that were gelators in the DMSO:H2O (1:2) solvent system. In general, a compound was dissolved in heated solvent in a small vial at its minimum gelation concentration and transferred into a tube (e.g., an NMR tube) while the mixture was still warm. The tube was sonicated and cooled until a stable gel formed. The tube was immersed in an oil bath and the temperature of the solid-to-liquid phase transition was monitored using a thermometer as the oil bath temperature was changed. Gel melting temperatures are presented in […]

[2] = Optical micrographs of gels (morphology); type: physicochemical; conditions: for morphology of the gel: optical micrographs, FIG. 3
From the text: Solvent for 1(a-d) is DMSO:H2O (1:2); solvent for 1(e-f) is EtOH:H2O (1:2).
The EtOH/H2O gel has shown more uniform fibrous structures with an average diameter of 0.5 μm and over 300 μm in length (FIG. 3e, f).

| Gelation test result ([1]; DMSO:H2O (1:1)) | minimum gelation concentration ([1]; DMSO:H2O (1:1)) | Gelation test result ([1]; DMSO:H2O (1:2)) | minimum gelation concentration ([1]; DMSO:H2O (1:2)) | MGC in DMSO:H2O (1:2) ([1]; DMSO:H2O (1:2)) | Gelation test result ([1]; EtOH) | Gelation test result ([1]; EtOH:H2O (1:1)) | minimum gelation concentration ([1]; EtOH:H2O (1:1)) | Gelation test result ([1]; EtOH:H2O (1:2)) | Gelation test result ([1]; H2O) | Gelation test result ([1]; Hexane) | T1, temperature at which gel begins to melt (Gel melting temperatures) | T2, temperature at which gel is approximately half melted (Gel melting temperatures) | T3, temperature at which gel is fully melted (Gel melting temperatures) | melting point | gelation efficiency (in words) [1] | minimum gelation concentration ([1]; EtOH:H2O (1:2)) | morphology of the gel [2] | minimum gelation concentration ([1]; EtOH) | Structure (SMILES) | further results |
| --- | --- | --- | --- | --- | --- | --- | --- | --- | --- | --- | --- | --- | --- | --- | --- | --- | --- | --- | --- | --- |
| G | 10.0 mg/mL | G | 5.0 mg/mL | 5.0 mg/mL | S (S, soluble at ~20 mg/mL) | G | 20.0 mg/mL | P | P | I | 78 °C | 80 °C | 90 °C | 168 to 170 °C | – | – | – | – | O=C(CN(Cc1ccccc1)C(=O)c1ccc(Br)cc1)NC1CCCCC1 [Compound 17, N-benzyl-4-bromo-N-(2-(cyclohexylamino)-2-oxoethyl)benzamide] | – |
| P | – | G | 20.0 mg/mL | 20.0 mg/mL | S (S, soluble at ~20 mg/mL) | P | – | P | S (S, soluble at ~20 mg/mL) | I | 50 °C | 52 °C | 58 °C | 94 to 96 °C | – | – | – | – | CCOC(=O)CNC(=O)CN(Cc1ccc(OC)cc1)C(=O)c1ccccc1 [Compound 23, Ethyl 2-(2-(N-(4-methoxybenzyl)benzamido)acetamido)acetate] | – |
| G | 10.0 mg/mL | G | 6.6 mg/mL | 6.6 mg/mL | I | G | 20.0 mg/mL | G | P | I | 110 °C | 118 °C | 128 °C | 207 to 209 °C | more efficient gelator | 10.0 mg/mL | thinner fibrous assembly | – | CCOC(=O)CNC(=O)CN(C(=O)c1ccc(Br)cc1)C1C(OC)OC2COC(c3ccccc3)OC2C1O (stereo not drawn) [Compound 26, Ethyl-2-(2-(4-bromo-N-(8-hydroxy-6-methoxy-2-phenyl-hexahydropyrano[3,2-d][1,3]dioxin-7-yl)benzamido)acetamido)acetate] | concentration at which gel formed ([1]; DMSO/H2O (1:2)): 0.66 wt % |
| G | 20.0 mg/mL | G | 10.0 mg/mL | 10.0 mg/mL | P | G | 20.0 mg/mL | P | P | I | 91 °C | 95 °C | 110 °C | 190 to 192 °C | not a very efficient gelator | – | rod or sheet like feature | – | O=C(CN(Cc1ccccc1)C(=O)c1ccc([N+](=O)[O-])cc1)NC1CCCCC1 [Compound 18, N-benzyl-N-(2-(cyclohexylamino)-2-oxoethyl)-4-nitrobenzamide] | concentration at which gel formed ([1]; DMSO aqueous mixture): 2 wt % |
| G | 5.0 mg/mL | G | 6.6 mg/mL | 6.6 mg/mL | P | G | 10.0 mg/mL | P | P | P | 91 °C | 110 °C | 120 °C | 174 to 176 °C | – | – | – | – | COc1ccc(CN(CC(=O)NC2CCCCC2)C(=O)c2ccc(Br)cc2)cc1 [Compound 20, N-(4-methoxybenzyl)-4-bromo-N-(2-(cyclohexylamino)-2-oxoethyl)benzamide] | – |
| P | – | P | – | – | G | P | – | G | I | P | – | – | – | 261 to 263 °C | – | 20.0 mg/mL | – | 20.0 mg/mL | COC1OC2COC(c3ccccc3)OC2C(O)C1N(CC(=O)NC1CCCCC1)C(=O)c1ccccc1 (stereo not drawn) [Compound 24, N-(2-(cyclohexylamino)-2-oxoethyl)-N-(8-hydroxy-6-methoxy-2-phenyl-hexahydropyrano[3,2-d][1,3]dioxin-7-yl)benzamide] | – |
| G | 20.0 mg/mL | P | – | – | G | G | 20.0 mg/mL | G | I | P | – | – | – | 291 to 293 °C | – | 20.0 mg/mL | – | 20.0 mg/mL | COC1OC2COC(c3ccccc3)OC2C(O)C1N(CC(=O)NC1CCCCC1)C(=O)c1ccc(Br)cc1 (stereo not drawn) [Compound 25, 4-Bromo-N-(2-(cyclohexylamino)-2-oxoethyl)-N-(8-hydroxy-6-methoxy-2-phenyl-hexahydropyrano[3,2-d][1,3]dioxin-7-yl)benzamide] | – |
| G | 20.0 mg/mL | G | 20.0 mg/mL | 20.0 mg/mL | P | P | – | G | S (S, soluble at ~20 mg/mL) | P^(b) | 95 °C | 100 °C | 110 °C | 138 to 140 °C | – | 20.0 mg/mL | – | – | C#CCCC(=O)N(CC(=O)NC1CCCCC1)Cc1ccccc1 [Compound 15, N-benzyl-N-(2-(cyclohexylamino)-2-oxoethyl)pent-4-ynamide] | – |

| Structure (SMILES) | Gelation test result ([1]; DMSO:H2O (1:1)) | minimum gelation concentration ([1]; DMSO:H2O (1:1)) | Gelation test result ([1]; DMSO:H2O (1:2)) | minimum gelation concentration ([1]; DMSO:H2O (1:2)) | MGC in DMSO:H2O (1:2) ([1]; DMSO:H2O (1:2)) | Gelation test result ([1]; EtOH) | Gelation test result ([1]; EtOH:H2O (1:1)) | minimum gelation concentration ([1]; EtOH:H2O (1:1)) | Gelation test result ([1]; EtOH:H2O (1:2)) | Gelation test result ([1]; H2O) | Gelation test result ([1]; Hexane) | T1, temperature at which gel begins to melt (Gel melting temperatures) | T2, temperature at which gel is approximately half melted (Gel melting temperatures) | T3, temperature at which gel is fully melted (Gel melting temperatures) | melting point | gelation efficiency (in words) [1] | minimum gelation concentration ([1]; EtOH:H2O (1:2)) | morphology of the gel [2] | minimum gelation concentration ([1]; EtOH) | further results |
| --- | --- | --- | --- | --- | --- | --- | --- | --- | --- | --- | --- | --- | --- | --- | --- | --- | --- | --- | --- | --- |
| CCOC(=O)CNC(=O)CN(Cc1ccc(OC)cc1)C(=O)c1ccc(Br)cc1 [Compound 21, Ethyl 2-(2-(N-(4-methoxybenzyl)-4-bromobenzamido)acetamido)acetate] | G | 2.5 mg/mL | G | 2.0 mg/mL | 2.0 mg/mL | G | G | 5.0 mg/mL | G | S (S, soluble at ~20 mg/mL) | I | 70 °C | 75 °C | 81 °C | 123 to 125 °C | most efficient gelator identified in this study | 2.8 mg/mL | very long and uniform fibrous assemblies | 20.0 mg/mL | average diameter of fibrous structures ([2]; EtOH/H2O gel): 0.5 μm; length of fibrous structures ([2]; EtOH/H2O gel): over 300 μm |
